In patent US11241393B2 (priority 2020, dated 2022):
Read-outs that look alike come from different tables or passages of the source.

What was measured:
human cytomegalovirus = assay type: cell-based
[1] = rat, in vivo
in vitro [2] = conditions: dog
[3] = tested on: influenza virus A/Aichi/2/68 (H3N2); assay: organism not typed; assay type: cell-based; conditions: for IC50: MDCK
in vitro [4] = conditions: cattle
in vitro [5] = conditions: human
in vitro [6] = assay: in vitro
vaccinia virus = assay type: cell-based; conditions: in vitro, cell culture
in vitro [7] = conditions: human; remark: listed apart in the source

Structure (SMILES): CCCCCCCCCCCCCCCCCC[Si](CCCCCCCCCCCCCCCCCC)(OC1OC(COC(C)=O)C(OC(C)=O)C(OC(C)=O)C1OC(C)=O)OC1OC(COC(C)=O)C(OC(C)=O)C(OC(C)=O)C1OC(C)=O [Sil 15, 1-O-Dioctadecylsilyl-di(2,3,4,6-O-tetraacetyl-b-D-galactopyranoside)]
- antiviral activity against human cytomegalovirus (human cytomegalovirus; in vitro, cell culture): Close to borderline effect

Structure (SMILES): N.N.[Cl-].[Cl-].[OH-].[OH-].[Pt+4] [Standard Cis-Oxoplatin, cis-oxoplatin]
- tissues with highest platinum concentration compared with the other treatment groups ([1]; iv): highest platinum concentration in the stomach and the liver
- tissues with highest platinum concentration compared with the other treatment groups ([1]; po): highest accumulation of platinum in the spleen and lungs

Structure (SMILES): CCCCCCCCCCCC[Si](C)(C)O[C@@H]1O[C@H](COC(C)=O)[C@@H](OC(C)=O)[C@H](OC(C)=O)[C@H]1OC(C)=O [Sil 19, 1-O-Dimethyl(dodecyl)silyl-(2,3,4,6-O-tetraacetyl-b-D-glucopyranoside)]
- CC50 (MDCK cells): 65.5 µM
- antiviral activity against human cytomegalovirus (human cytomegalovirus): Close to borderline effect

Structure (SMILES): CCCCCCCCCCC(=O)O[Si](C)(C)OC(=O)CCCCCCCCCC [Sil 34, Di(undecanoyloxy)dimethylsilane]
- CC50 (in vitro [2]): 2530 µM
- antiviral activity against human cytomegalovirus (human cytomegalovirus): Close to borderline effect

Structure (SMILES): CC(N)C12CC3CC(CC(C3)C1)C2 (centres unmarked) [Rimantadine, reference compound]
- CC50 (in vitro [2]): 94 µM
- SI [3]: 3133.0
- IC50 [3]: 0.03 µM

Structure (SMILES): CCCCCCCCCC[Si](C)(C)CCOC1OC(CO)C(O)C(O)C1O [Sil 2, 2-(Dimethyldecylsilyl)ethyl-b-D-glucopyranoside]
- CC50 (in vitro [2]): < 20 µM
- cytotoxicity (summary in words) (CT cells): wider toxicity
- cytotoxicity (summary in words) (MDCK cells): wider toxicity
- CC50 (MDCK cells; dog): 18 µM
- antiviral activity against human cytomegalovirus (human cytomegalovirus): Close to borderline effect
- CC50 (in vitro [4]): < 20 µM
- CC50 (in vitro [5]): < 20 µM
- CC50 (in vitro [6]): < 20 µM
- cytotoxicity (summary in words) (HEp-2 cells): wider toxicity
- SI [3]: 2.43
- antiviral activity toward influenza virus A(H3N2) [3]: marked activity
- IC50 [3]: 7.38 µM

Structure (SMILES): CCCCCCCCCCCC[Si](C)(C)CCOC1OC(CO)C(O)C(O)C1O [Sil 3, 2-(Dimethyldodecylsilyl)ethyl-b-D-glucopyranoside]
- CC50 (in vitro [2]): < 20 µM
- CC50 (MDCK cells; dog): 19.2 µM
- CC50 (in vitro [4]): < 20 µM
- CC50 (in vitro [6]): < 20 µM
- SI [3]: 2.9
- antiviral activity toward influenza virus A(H3N2) [3]: marked activity
- IC50 [3]: 6.6 µM

Structure (SMILES): CCCCCCCCCCCCCCCC(=O)O[Si](OC(=O)CCCCCCCCCCCCCCC)(c1ccccc1)c1ccccc1 [Sil 27, Di(hexadecanoyloxy)diphenylsilane]
- CC50 (in vitro [2]): 317 µM
- SI (human cytomegalovirus): 30.9
- antiviral activity against human cytomegalovirus (human cytomegalovirus): marked activity

Structure (SMILES): CCCCCCCCCCCC[Si](C)(C)OC1OC(CO)C(O)C(O)C1O [Sil 9, Dodecyldimethylsilyl-a-D-glucopyranoside]
- CC50 (in vitro [2]): 444 µM
- antiviral activity versus vaccinia virus (vaccinia virus): marked activity

Structure (SMILES): CCCC[Si](C)(C)OC1OC(CO)C(O)C(O)C1O [Sil 7, Butyldimethylsilyl-a-D-galactopyranoside]
- CC50 (in vitro [2]): 444 µM
- antiviral activity against human cytomegalovirus (human cytomegalovirus): Close to borderline effect
- CC50 (in vitro [7]): < 20 µM

Structure (SMILES): CCCCCCCCCCCCCCCCCC[Si](C)(C)O[C@@H]1O[C@H](COC(C)=O)[C@@H](OC(C)=O)[C@H](OC(C)=O)[C@H]1OC(C)=O [Sil 20, 1-O-Dimethyl(octadecyl)silyl-(2,3,4,6-O-tetraacetyl-b-D-glucopyranoside)]
- CC50 (MDCK cells): 2530 µM
- antiviral activity toward the cytomegalovirus (human cytomegalovirus): marked activity

Structure (SMILES): CCCCCCCCCCCC(=O)O[Si](OC(=O)CCCCCCCCCCC)(c1ccccc1)c1ccccc1 [Sil 25, Di(dodecanoyloxy)diphenylsilane]
- CC50 (in vitro [2]): 55.9 µM
- CC50 (in vitro [6]): < 20 µM
- SI [3]: 5.82
- antiviral activity toward influenza virus A(H3N2) [3]: marked activity
- IC50 [3]: 9.6 µM
